We go through 28 compounds from ChEMBL document CHEMBL3585342, “Exploring the isoform selectivity of TGX-221 related pyrido[1,2-a]pyrimidinone-based Class IA PI 3-kinase inhibitors: synthesis, biological evaluation and molecular modelling” (Bioorg Med Chem, 2015).

Experiment [1] has as its target Phosphatidylinositol 4,5-bisphosphate 3-kinase catalytic subunit alpha isoform (Homo sapiens, UniProt P42336). It counts as cell-based, Sf9.
Description: Inhibition of N-terminal His-tagged human p110alpha expressed in Sf9 cells co-expressing p85alpha regulatory subunit using phosphatidylinositol substrate and [gamma-33P]-ATP by basic thin layer chromatography technique based lipid kinase assay
The target of experiment [2] is Phosphatidylinositol 4,5-bisphosphate 3-kinase catalytic subunit beta isoform (Homo sapiens, UniProt P42338). Type of experiment: cell-based, Sf9.
Description: Inhibition of N-terminal His-tagged human p110beta expressed in Sf9 cells co-expressing p85alpha regulatory subunit using phosphatidylinositol substrate and [gamma-33P]-ATP by basic thin layer chromatography technique based lipid kinase assay
The target of experiment [3] is T1, Phosphatidylinositol 4,5-bisphosphate 3-kinase catalytic subunit delta isoform (Homo sapiens, UniProt O00329).
T1 sequence (O00329 whole entry): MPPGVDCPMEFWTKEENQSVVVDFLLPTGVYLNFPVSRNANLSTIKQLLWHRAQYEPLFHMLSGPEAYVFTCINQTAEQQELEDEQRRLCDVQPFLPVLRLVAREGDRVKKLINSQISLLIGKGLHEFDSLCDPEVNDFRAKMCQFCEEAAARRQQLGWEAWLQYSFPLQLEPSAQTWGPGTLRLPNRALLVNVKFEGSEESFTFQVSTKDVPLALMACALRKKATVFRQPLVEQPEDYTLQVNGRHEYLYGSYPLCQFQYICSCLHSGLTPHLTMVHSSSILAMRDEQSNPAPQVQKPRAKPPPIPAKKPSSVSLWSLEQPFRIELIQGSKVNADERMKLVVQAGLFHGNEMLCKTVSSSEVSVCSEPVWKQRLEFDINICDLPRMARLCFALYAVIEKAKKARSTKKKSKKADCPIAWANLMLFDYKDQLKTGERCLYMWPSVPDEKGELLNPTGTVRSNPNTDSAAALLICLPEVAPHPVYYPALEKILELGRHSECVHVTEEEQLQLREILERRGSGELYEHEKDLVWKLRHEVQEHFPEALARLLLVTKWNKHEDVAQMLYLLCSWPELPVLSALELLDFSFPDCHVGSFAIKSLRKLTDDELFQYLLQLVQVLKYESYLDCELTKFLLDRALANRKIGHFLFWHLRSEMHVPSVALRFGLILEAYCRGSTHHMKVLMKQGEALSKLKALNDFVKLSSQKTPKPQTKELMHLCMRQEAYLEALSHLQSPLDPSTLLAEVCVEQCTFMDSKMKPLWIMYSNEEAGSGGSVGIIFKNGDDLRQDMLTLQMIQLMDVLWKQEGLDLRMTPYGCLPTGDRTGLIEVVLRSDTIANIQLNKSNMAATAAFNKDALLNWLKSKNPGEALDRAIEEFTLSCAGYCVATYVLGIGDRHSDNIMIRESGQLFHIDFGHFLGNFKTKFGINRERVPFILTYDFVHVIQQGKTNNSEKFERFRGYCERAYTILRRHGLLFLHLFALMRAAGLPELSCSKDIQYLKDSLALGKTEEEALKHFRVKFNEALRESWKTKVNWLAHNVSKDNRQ
It counts as cell-based, Sf9.
Description: Inhibition of N-terminal His-tagged human p110delta expressed in Sf9 cells co-expressing p85alpha regulatory subunit using phosphatidylinositol substrate and [gamma-33P]-ATP by basic thin layer chromatography technique based lipid kinase assay

Experiment [4] in a line: Inhibition of cell proliferation of human NZB5 cells containing wild-type p110alpha gene incubated for 5 days by [3H]thymidine incorporation assay. It counts as functional, cell-based. For orientation: Uptake of a labelled nucleoside into DNA is a usual measure of proliferation.
Experiment [5] in a line: Inhibition of cell proliferation of human NZOV9 cells containing wild-type p53 protein and p110alpha Y1021C mutant incubated for 5 days by [3H]thymidine incorporation assay. It counts as functional, cell-based.

Chain of Phosphatidylinositol 4,5-bisphosphate 3-kinase catalytic subunit beta isoform (P42338 whole entry, canonical isoform): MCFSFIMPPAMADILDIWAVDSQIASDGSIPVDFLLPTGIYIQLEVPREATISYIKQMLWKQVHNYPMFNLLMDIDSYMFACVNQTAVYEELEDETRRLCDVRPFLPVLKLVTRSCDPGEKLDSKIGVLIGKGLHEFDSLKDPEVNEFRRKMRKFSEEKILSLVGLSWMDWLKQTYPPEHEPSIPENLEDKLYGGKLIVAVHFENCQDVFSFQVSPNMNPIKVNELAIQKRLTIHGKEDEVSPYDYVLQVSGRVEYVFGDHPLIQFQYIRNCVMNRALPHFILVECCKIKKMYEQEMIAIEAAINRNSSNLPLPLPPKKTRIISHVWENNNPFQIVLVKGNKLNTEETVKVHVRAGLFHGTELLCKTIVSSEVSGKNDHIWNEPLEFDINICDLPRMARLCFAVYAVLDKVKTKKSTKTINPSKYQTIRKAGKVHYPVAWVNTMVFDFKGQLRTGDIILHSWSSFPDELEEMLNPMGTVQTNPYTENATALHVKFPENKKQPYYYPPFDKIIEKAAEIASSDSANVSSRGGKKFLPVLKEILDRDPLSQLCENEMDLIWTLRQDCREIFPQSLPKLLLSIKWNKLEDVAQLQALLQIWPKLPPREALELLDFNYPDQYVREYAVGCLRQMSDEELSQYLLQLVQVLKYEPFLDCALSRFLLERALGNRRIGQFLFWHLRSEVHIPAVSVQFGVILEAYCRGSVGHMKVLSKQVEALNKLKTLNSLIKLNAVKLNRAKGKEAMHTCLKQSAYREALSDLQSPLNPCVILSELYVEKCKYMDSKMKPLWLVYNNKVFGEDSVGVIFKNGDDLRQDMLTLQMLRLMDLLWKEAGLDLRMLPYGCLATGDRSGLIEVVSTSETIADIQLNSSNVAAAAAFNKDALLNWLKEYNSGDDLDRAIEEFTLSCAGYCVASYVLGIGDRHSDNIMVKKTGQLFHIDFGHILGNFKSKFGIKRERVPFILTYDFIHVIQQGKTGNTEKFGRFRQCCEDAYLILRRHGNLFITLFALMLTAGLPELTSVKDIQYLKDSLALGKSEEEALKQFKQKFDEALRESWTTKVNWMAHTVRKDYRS
Chain of Phosphatidylinositol 4,5-bisphosphate 3-kinase catalytic subunit alpha isoform (P42336 whole entry, canonical isoform): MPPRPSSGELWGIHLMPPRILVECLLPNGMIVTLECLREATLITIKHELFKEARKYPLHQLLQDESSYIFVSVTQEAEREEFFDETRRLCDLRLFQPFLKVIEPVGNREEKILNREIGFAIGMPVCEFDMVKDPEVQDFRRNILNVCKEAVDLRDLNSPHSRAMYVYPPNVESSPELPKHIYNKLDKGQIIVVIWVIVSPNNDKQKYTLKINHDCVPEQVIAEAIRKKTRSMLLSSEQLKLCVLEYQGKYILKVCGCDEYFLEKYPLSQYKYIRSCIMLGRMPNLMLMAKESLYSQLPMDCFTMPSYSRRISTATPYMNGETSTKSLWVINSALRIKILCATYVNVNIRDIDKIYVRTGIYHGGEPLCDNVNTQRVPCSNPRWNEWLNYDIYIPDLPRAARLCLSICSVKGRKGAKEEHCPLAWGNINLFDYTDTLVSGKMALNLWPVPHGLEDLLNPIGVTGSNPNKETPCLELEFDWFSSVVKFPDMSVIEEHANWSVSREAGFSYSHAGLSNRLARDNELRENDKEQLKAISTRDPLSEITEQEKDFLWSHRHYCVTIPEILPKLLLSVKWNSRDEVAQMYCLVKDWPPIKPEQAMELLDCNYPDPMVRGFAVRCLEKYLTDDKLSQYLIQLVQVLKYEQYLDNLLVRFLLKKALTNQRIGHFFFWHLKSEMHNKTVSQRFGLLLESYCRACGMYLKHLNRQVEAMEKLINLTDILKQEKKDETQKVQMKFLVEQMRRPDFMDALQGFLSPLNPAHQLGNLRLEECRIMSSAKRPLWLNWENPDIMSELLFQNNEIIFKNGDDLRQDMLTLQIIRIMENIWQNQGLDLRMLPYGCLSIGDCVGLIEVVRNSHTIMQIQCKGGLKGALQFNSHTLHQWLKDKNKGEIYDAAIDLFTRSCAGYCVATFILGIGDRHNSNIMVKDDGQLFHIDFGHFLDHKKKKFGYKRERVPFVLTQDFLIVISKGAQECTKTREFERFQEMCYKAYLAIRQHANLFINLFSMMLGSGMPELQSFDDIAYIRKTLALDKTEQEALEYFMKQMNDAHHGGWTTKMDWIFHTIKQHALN

In the case of `O=c1cc(N2CCOCC2)nc2c(COc3ccccc3)cccn12`, the 50% inhibitory concentration (IC50) was found to be 1500 nM in experiment [1]; 230 nM in experiment [2]; 470 nM in experiment [3]; 17000 nM in experiment [4]; 11000 nM in experiment [5].
Consider `Cc1ccc(OCc2cccn3c(=O)cc(N4CCOCC4)nc23)cc1`, for which the IC50 in experiment [1] was 2500 nM; in experiment [2], 1000 nM; in experiment [3], 550 nM; in experiment [4], 13000 nM; in experiment [5], 8200 nM.
Take `Cc1ccccc1NC(=O)c1cccn2c(=O)cc(N3CCOCC3)nc12`: the 50% inhibitory concentration (IC50) was 1800 nM in experiment [1]; 1500 nM in experiment [2]; 530 nM in experiment [3]; > 20000 nM in experiment [4]; 11000 nM in experiment [5].
As for `Cc1ccc(S(=O)(=O)NCc2cccn3c(=O)cc(N4CCOCC4)nc23)cc1`, the IC50 is 6500 nM in experiment [1]; 7400 nM in experiment [2]; 600 nM in experiment [3]; 18000 nM in experiment [4]; > 20000 nM in experiment [5].
The matching figures for `O=C(Nc1ccccc1)Nc1cccn2c(=O)cc(N3CCOCC3)nc12`: 600 nM, 630 nM, 480 nM, 7200 nM and 2900 nM.
`O=C(NCc1ccccn1)c1cccn2c(=O)cc(N3CCOCC3)nc12`: the concentration for half-maximal inhibition (IC50) in experiment [1] was 4800 nM; in experiment [2] it was > 10000 nM; in experiment [3] it was > 10000 nM; in experiment [4], 20000 nM; in experiment [5], > 20000 nM.
Regarding `O=c1cc(N2CCOCC2)nc2c(NS(=O)(=O)c3ccccc3)cccn12`, the IC50 in experiment [1] was > 10000 nM; in experiment [2] it was > 10000 nM; in experiment [3], 1700 nM; in experiment [4], 6000 nM; in experiment [5] it was 500 nM.
`Cc1cccc(Nc2cc(C)cn3c(=O)cc(N4CCOCC4)nc23)c1`: the IC50 in experiment [1] was > 1000 nM; in experiment [2], 1200 nM; in experiment [3], 470 nM; in experiment [4], 900 nM; in experiment [5], 600 nM.
For `O=C(Nc1cccn2c(=O)cc(N3CCOCC3)nc12)Oc1ccccc1`, the IC50 in experiment [1] was determined as 9000 nM; in experiment [2], 9100 nM; in experiment [3], 1800 nM; in experiment [4], 7000 nM; in experiment [5], 2500 nM.
Consider `O=C(NCc1cccnc1)c1cccn2c(=O)cc(N3CCOCC3)nc12`, for which the IC50 in experiment [1] was 6500 nM; in experiment [2], > 10000 nM; in experiment [3] it was > 10000 nM; in experiment [4], 18000 nM; in experiment [5], > 20000 nM.
Turning to `COc1ccc(OCc2cccn3c(=O)cc(N4CCOCC4)nc23)cc1`, the IC50 in experiment [1] is 1600 nM; in experiment [2], 1400 nM; in experiment [3], 460 nM; in experiment [4] it was 13000 nM; in experiment [5], 14000 nM.
`O=c1cc(N2CCOCC2)nc2c(CNc3ccc(Cl)cc3)cccn12`: the IC50 in experiment [1] was 3100 nM; in experiment [2], 310 nM; in experiment [3], 1100 nM; in experiment [4] it was > 20000 nM; in experiment [5], 15000 nM.
On to `O=C(Nc1cccn2c(=O)cc(N3CCOCC3)nc12)c1ccccc1`, for which the concentration for half-maximal inhibition (IC50) in experiment [1] came to 510 nM; in experiment [2] it was 1800 nM; in experiment [3], 220 nM; in experiment [4] it was 10000 nM; in experiment [5], 2500 nM.
The matching figures for `Cc1cc(NCc2ccccn2)c2nc(N3CCOCC3)cc(=O)n2c1`: 2000 nM, 420 nM, 800 nM, 2400 nM and 7000 nM.
For the compound `Cc1ccc(NC(=O)c2cccn3c(=O)cc(N4CCOCC4)nc23)cc1`, the half-inhibitory concentration (IC50) in experiment [1] was 1200 nM; in experiment [2] it was > 10000 nM; in experiment [3], 140 nM; in experiment [4], > 20000 nM; in experiment [5] it was > 20000 nM.
Regarding `Cc1cc(NCc2ccccc2)c2nc(N3CCOCC3)cc(=O)n2c1`, the IC50 in experiment [1] is 500 nM; in experiment [2], 150 nM; in experiment [3] it was 230 nM; in experiment [4], 100 nM; in experiment [5], 500 nM.
Turning to `Cc1cc(N[C@@H](C)c2ccccc2)c2nc(N3CCOCC3)cc(=O)n2c1`, the half-maximal inhibitory concentration (IC50) in experiment [1] amounted to 2200 nM; in experiment [2], 210 nM; in experiment [3], 270 nM; in experiment [4], 700 nM; in experiment [5], 600 nM.
With `Cc1ccc(Nc2cc(C)cn3c(=O)cc(N4CCOCC4)nc23)cc1`, the half-maximal inhibitory concentration (IC50) in experiment [1] stood at 2900 nM; in experiment [2], 3200 nM; in experiment [3] it was 1000 nM; in experiment [4], 1000 nM; in experiment [5], 1600 nM.
Take `O=C(Nc1ccccc1)c1cccn2c(=O)cc(N3CCOCC3)nc12`: the half-inhibitory concentration (IC50) in experiment [1] was determined as 490 nM; in experiment [2], 3600 nM; in experiment [3], 150 nM; in experiment [4], 2000 nM; in experiment [5], 7000 nM.
Take `CN(Cc1cccn2c(=O)cc(N3CCOCC3)nc12)c1ccccc1`: the IC50 came to 790 nM in experiment [1]; 30 nM in experiment [2]; 270 nM in experiment [3]; 12000 nM in experiment [4]; 10000 nM in experiment [5].
`O=C(NCc1ccncc1)c1cccn2c(=O)cc(N3CCOCC3)nc12`: the half-inhibitory concentration (IC50) in experiment [1] is 6400 nM; in experiment [2] it was > 10000 nM; in experiment [3] it was > 10000 nM; in experiment [4], 12000 nM; in experiment [5] it was > 20000 nM.
On to `Cc1cc(Nc2c(C)cccc2C)c2nc(N3CCOCC3)cc(=O)n2c1`, for which the IC50 in experiment [1] stood at 3900 nM; in experiment [2] it was 2100 nM; in experiment [3], 500 nM; in experiment [4], 1500 nM; in experiment [5] it was 1300 nM.
As to `Cc1cc(N(C)c2ccccc2)c2nc(N3CCOCC3)cc(=O)n2c1`, the 50% inhibitory concentration (IC50) in experiment [1] is 4400 nM; in experiment [2], 670 nM; in experiment [3] it was 900 nM; in experiment [4] it was 2000 nM; in experiment [5] it was 5000 nM.
For `Cc1ccc(CNc2cc(C)cn3c(=O)cc(N4CCOCC4)nc23)cc1`, the half-maximal inhibitory concentration (IC50) in experiment [1] is 900 nM; in experiment [2], 1800 nM; in experiment [3], 640 nM; in experiment [4] it was 400 nM; in experiment [5], > 20000 nM.
The matching figures for `Cc1ccccc1C(=O)Nc1cccn2c(=O)cc(N3CCOCC3)nc12`: 810 nM, 2400 nM, 270 nM, 5500 nM and 800 nM.
Turning to `N#Cc1ccc(OCc2cccn3c(=O)cc(N4CCOCC4)nc23)cc1`, the IC50 is > 10000 nM in experiment [1]; 1000 nM in experiment [2]; 1500 nM in experiment [3]; > 20000 nM in experiment [4]; 18000 nM in experiment [5].
For `Cc1cc(Nc2ccccc2)c2nc(N3CCOCC3)cc(=O)n2c1`, the IC50 in experiment [1] stood at 1700 nM; in experiment [2], 450 nM; in experiment [3] it was 410 nM; in experiment [4], 1200 nM; in experiment [5] it was 3000 nM.
Turning to `COc1ccc(NCc2cccn3c(=O)cc(N4CCOCC4)nc23)cc1`, the IC50 in experiment [1] was determined as 350 nM; in experiment [2], 2100 nM; in experiment [3], 240 nM; in experiment [4], 340 nM; in experiment [5], 9600 nM.

What is called IC50 is the concentration needed to halve the response being measured.
